The text below walks through data of patent US10886008B2, “Methods and systems for determining the biological age of samples” (Spring Discovery, Inc., priority 2018, dated 2021).

Experiment [1] relates to mouse myoblast cells. The experiment can be described thus: In vitro cell-based drug screening of mouse myoblast cells with machine-learning biological age prediction. Details: species or system C57BL/6J mice. The settings on record: for Change relative to control: average predicted age of treatment vs vehicle control wells on the same plate, concentrations of Table 8; for Average predicted age of treatment (months): primary myoblasts, concentrations of Table 8: Oxytocin 30 nM, TGFbeta 10 ng/mL, Wnt3a 100 ng/ml, Klotho 0.5 μg/mL, ALK5 inhibitor II 0.5 μM, PP242 300 nM, stained 48 hours post-plating. The protocol:
The machine learning systems and methods for predicting biological age were applied toward accelerating drug screens designed to detect interventions that slow or reverse one or more phenotypes of aging. Such a drug screening approach was tested using proof-of-concept drug screens, including an in vitro drug screening experimental model. This machine learning-based drug screening approach for aging-related therapies is described below. The machine learning-based mouse myoblast cellular aging approach was used to test an in vitro screening model for detecting anti-aging molecules for myoblasts.
The myoblast cell screening was run in parallel with the myoblast biological age prediction described in Example 3, and the same processes for primary cell acquisition, preparation, processing, and image acquisition steps were performed as described in Example 3.
For myoblast screening, replicate 384-well plates were dedicated to testing compound treatments (Treatment Plates) and were seeded with primary myoblasts, replicating the same plate layout as the myoblast age prediction experiment described in Example 3.
For the Treatment Plates, after the cells adhere to the plate (around 2 hours post-plating) the media was changed. For each set of 10 replicate wells from each primary myoblast line, 4 of the wells received media supplemented with vehicle control, 3 wells received media supplemented with one test compound, and 3 wells received media supplemented with another test compound. In this manner, each Treatment Plate was used to test two different compounds, and three Treatment Plates were used in total to test six different compounds.
All Treatment Plates were fed 24 hours post-plating with myoblast growth media supplemented with drugs or their respective vehicle control.
As mentioned, the plates are handled, processed, and stained in the same way as described in the myoblast biological age prediction described in Example 3. Briefly, these plates were stained for EdU, desmin, ER cytopainter, and counterstained with Hoechst.
Next, the data were prepared using a similar process as that described in Example 3. This created a treatment dataset that was analyzed using a previously generated aging model, which was trained on the aging dataset that was generated as described in Example 3.
Next, the data was analyzed using a similar deep convolutional neural network architecture and the machine learning analysis approach described in Example 1. First, the deep convolutional neural network architecture was trained using the aging dataset and the machine learning analysis approach described in Example 1. Performing this training yields a final set of weights to use with the neural network for the treatment analysis. Second, the effects of the treatments were analyzed by applying the generated neural network to the entirety of the treatment dataset. This is subsequently referred to as a “transference” of the aging model to the treatment data.
Next, as described in Example 6, average age predictions for each mouse were produced by predicting the biological age classification for each tile and averaging all tiles' predictions together. This calculation was performed for all three folds of the data, and those average predictions were then averaged together again. This produced a single numerical biological age prediction for each mouse, which was compared to control.
Next, as described in Example 6, p-values were calculated using the Kolmogorov-Smirnov test to assess the statistical difference of the distributions of age predictions for each compound versus control. Note that in this case, because there are multiple plates being tested, each with different test compounds, each compound is compared only to the control wells on its own plate, thereby resulting in different control values for each compound, as shown in Table 9.

Experiment [2] has as its system mouse skin tissue. As to the kind of experiment: In vivo tissue-based drug screening of mouse skin tissue with machine-learning biological age prediction. Details: species or system C57BL/6J mice. The following applies: daily topical application for 61 days. The protocol: The machine learning systems and methods for predicting biological age were applied toward accelerating drug screens designed to detect interventions that slow or reverse one or more phenotypes of aging. Such a drug screening approach was tested using proof-of-concept drug screens, including an in vivo drug screening experimental model. This machine learning-based drug screening approach for aging-related therapies is described below. The machine learning-based skin tissue aging modeling approach was used to test an in vivo screening system for detecting topical anti-aging interventions on mouse skin.
Mouse skin tissue samples were acquired and prepared as follows. Skin samples were collected from 75 healthy C57BL/6J mice in five separate groups: 15 mice in a control group were 10 months old (“Control 1”), 15 mice in another control group were 14 months old (“Control 2”), 15 mice in a third control group were 18 months old (“Control 3”), and two independent treatment groups comprised 18-month-old mice (“Test Article 1” and “Test Article 2”). Each treatment group included 15 mice given a daily topical application for 61 days, as detailed below. All mouse ages are referenced from the start of the experiment.
The mice were shaved as necessary on a weekly basis in order to enable daily topical application on the back of the mice. […]

Take Wnt3a: in experiment [1], the “Change relative to control” value is reported as −5.04% and the “Average predicted age of treatment (months)” value is on record as 64.11 months.
Take `CC1=C(/C=C/C(C)=C/C=C/C(C)=C/C(=O)O)C(C)(C)CCC1` [Test Article 1, All Trans Retinoic Acid]: the “Average predicted age (months)” value in experiment [2] (18-month-old mice, HES-stained skin biopsies, averaged over tiles, three folds and mice) is 15.9 months. Further, the “Change relative to control group” value in experiment [2] (average predicted age vs control group (averaged across control groups 1-3)) is given as −7.28%.
As to `CC[C@H](C)[C@@H]1NC(=O)[C@H](Cc2ccc(O)cc2)NC(=O)[C@@H](N)CSSC[C@@H](C(=O)N2CCC[C@H]2C(=O)N[C@@H](CC(C)C)C(=O)NCC(N)=O)NC(=O)[C@H](CC(N)=O)NC(=O)[C@H](CCC(N)=O)NC1=O` [Oxytocin], in experiment [1], the “Change relative to control” value is −0.92% and the “Average predicted age of treatment (months)” value is 67.66 months.
For `CC(C)n1nc(-c2cc3cc(O)ccc3[nH]2)c2c(N)ncnc21` [PP242], in experiment [1], the “Change relative to control” value was −17.14% and the “Average predicted age of treatment (months)” value is 56.16 months.
As for `Cc1cccc(-c2[nH]ncc2-c2ccc3ncccc3n2)n1` [ALK5 inhibitor II], in experiment [1], the “Change relative to control” value is given as −14.13% and the “Average predicted age of treatment (months)” value is given as 56.22 months.
